Results on 23 compounds are retold here after patent US8946225B2, “Derivatives of 2H pyridazin-3-ones, their preparation and their use as SCD-1 inhibitors” (Pierre Fabre Medicament, priority 2009, dated 2015).

In data set [1] the target is T1, SCD-1 (Homo sapiens, UniProt O00767).
T1 construct: addition of 125 μg of microsomal fraction of HepG2 cells; host or cells: HepG2 human hepatocarcinoma cells (microsomal fraction)
T1 sequence (O00767 1-359): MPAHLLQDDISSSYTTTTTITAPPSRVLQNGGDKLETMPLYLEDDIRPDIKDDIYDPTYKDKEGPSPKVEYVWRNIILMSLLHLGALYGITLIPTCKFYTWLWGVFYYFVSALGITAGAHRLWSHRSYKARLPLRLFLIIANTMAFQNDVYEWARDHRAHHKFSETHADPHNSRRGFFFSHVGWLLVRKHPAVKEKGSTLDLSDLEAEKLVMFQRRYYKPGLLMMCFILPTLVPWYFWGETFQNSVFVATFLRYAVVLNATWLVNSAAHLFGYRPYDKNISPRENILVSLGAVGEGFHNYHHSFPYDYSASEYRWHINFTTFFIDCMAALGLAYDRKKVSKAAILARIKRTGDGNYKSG
Kind of data set: Human enzymatic activity of SCD-1 from microsomes of HepG2 cells (conversion of [14C] stearic acid to oleic acid, HPLC). It counts as biochemical. The following applies: microsomal fraction of HepG2 cells, 62 μM stearic acid, 20 minutes at 37° C., vs vehicle 0.1% DMSO; read-out: HSCD-1 (HEPG2) IC50. As for the experimental part: In vitro: Human enzymatic activity of SCD-1 from microsomes of HepG2 cells after treatment with the inhibitor compounds (% inhibition).
HepG2 cells of human hepatocarcinoma (ATCC, HB-8065) are cultured at confluence then trypsinated. The cell residue is solubilized in 10 mM Tris buffer (pH 7.4) sucrose (250 mM) DTT (1 mM) then the cells are lysed by sonication. The microsomes are obtained after centrifuging at 10,000 g for 20 minutes at 4° C. followed by centifrugation of the supernatant at 100,000 g for 60 minutes at 4° C. The residue is solubilized in 10 mM Tris buffer (pH 7.4) sucrose (250 mM) at 4° C. and the microsomal proteins are assayed and stored at −196° C. (liquid nitrogen).
The enzymatic reaction measures the conversion of stearic acid (C18:0 fatty acid) into oleic acid (C18:1 fatty acid) by SCD-1. The enzymatic reaction is initiated by the addition of 125 μg of microsomal fraction of HepG2 cells to tubes (total reaction volume of 500 μl) containing 62 μM stearic acid (45 μM stearic acid and 17 μM [^14C] stearic acid) in 100 mM phosphate buffer (pH 7.16) with 7.2 mM ATP, 0.54 mM CoA, 6 mM MgCl2, 0.8 mM NADH and the inhibitor compound or vehicle (0.1% DMSO). The tubes are incubated for 20 minutes at 37° C. then the enzymatic reaction is halted by the addition of KOH (12%) and saponification for 30 minutes at 80° C. After acidification (3N HCl), the fatty acids are extracted twice with ethyl ether, evaporated under nitrogen before being solubilized in methanol/dichloromethane (3:1). The reaction product (C18:1) is separated from the reaction substrate (C18:0) by HPLC (Perkin Elmer, C18 reverse phase column) coupled with an in-line radioactivity detector (FlowOne). Enzymatic activity is measured in picomoles of stearic acid converted to oleic acid per minute and per mg of protein. For each inhibitor compound, an IC50 value is determined, compared with the reference enzymatic activity (vehicle 0.1% DMSO). Sterculic acid is the reference inhibitor compound (Gomez F. E., Bauman D. E., Ntambi J. M., Fox B. G. Effects of sterculic acid on stearoyl-CoA desaturase in differentiating […] adipocytes. Biochem Biophys Res Commun. 300 316-326 (2003).

`Cn1nccc(NCC(=O)N2CCC(Oc3ccccc3C(F)(F)F)CC2)c1=O` [Example 1, 2-Methyl-4-{2-oxo-2-[4-(2-trifluoromethyl-phenoxy)-piperidin-1-yl]-ethylamino}-2H-pyridazin-3-one] returned a melting point of 50 °C. The IC50 in data set [1] was in the range of 100 to 1000 nM.
In turn, `Cn1nccc(NCC(=O)N2CCC(Oc3cc(F)ccc3C(F)(F)F)CC2)c1=O` [Example 2, 4-{2-[4-(5-Fluoro-2-trifluoromethyl-phenoxy)-piperidin-1-yl]-2-oxo-ethylamino}-2-methyl-2H-pyridazin-3-one] displayed a melting point of 140 °C. In addition, in data set [1], the 50% inhibitory concentration (IC50) was in the range of 30 to 100 nM.
The like results for `Cn1nccc(NCC(=O)N2CCC(Oc3cc(F)cc(C(F)(F)F)c3)CC2)c1=O` [Example 3, 4-{2-[4-(3-Fluoro-5-trifluoromethyl-phenoxy)-piperidin-1-yl]-2-oxo-ethylamino}-2-methyl-2H-pyridazin-3-one] were, in that order, 175 °C and 100 to 1000 nM.
In turn, `Cn1nccc(NCC(=O)N2CCC(Oc3cc(C(F)(F)F)ccc3Cl)CC2)c1=O` [Example 4, 4-{2-[4-(2-Chloro-5-trifluoromethyl-phenoxy)-piperidin-1-yl]-2-oxo-ethylamino}-2-methyl-2H-pyridazin-3-one] registered a melting point of 158 °C. In addition, the IC50 in data set [1] lay within 10 to 100 nM.
For `Cn1nccc(NCC(=O)N2CCC(Oc3cc(F)c(F)cc3Br)CC2)c1=O` [Example 5, 4-{2-[4-(2-Bromo-4,5-difluoro-phenoxy)-piperidin-1-yl]-2-oxo-ethylamino}-2-methyl-2H-pyridazin-3-one], the melting point was 137 °C. The IC50 in data set [1] was in the range of 30 to 100 nM.
Compound `Cn1nccc(NCC(=O)N2CCC(Oc3cc(Br)ccc3Cl)CC2)c1=O` [Example 6, 4-{2-[4-(5-Bromo-2-chloro-phenoxy)-piperidin-1-yl]-2-oxo-ethylamino}-2-methyl-2H-pyridazin-3-one] displayed a melting point of 160 °C. Also, the IC50 in data set [1] is 3 nM.
The compound `Cn1nccc(NCC(=O)N2CCC(Oc3ccccc3Cl)CC2)c1=O` [Example 7, 4-{2-[4-(2-Chloro-phenoxy)-piperidin-1-yl]-2-oxo-ethylamino}-2-methyl-2H-pyridazin-3-one] had a melting point of 142 °C. For the same compound, the IC50 in data set [1] lay within 100 to 1000 nM.
Consider `Cn1nccc(NCC(=O)N2CCC(Oc3cc(F)ccc3Cl)CC2)c1=O` [Example 8, 4-{2-[4-(2-Chloro-5-fluoro-phenoxy)-piperidin-1-yl]-2-oxo-ethylamino}-2-methyl-2H-pyridazin-3-one], for which the melting point amounted to 159 °C. The IC50 in data set [1] came to 100 nM.
The like results for `Cn1nccc(NCC(=O)N2CCC(Oc3cc([N+](=O)[O-])ccc3Cl)CC2)c1=O` [Example 9, 4-{2-[4-(2-Chloro-5-nitro-phenoxy)-piperidin-1-yl]-2-oxo-ethylamino}-2-methyl-2H-pyridazin-3-one] were, in that order, 162 °C and 100 to 1000 nM.
For `Cn1nccc(NCC(=O)N2CCC(Oc3ccc(Cl)c(Cl)c3)CC2)c1=O` [Example 10, 4-{2-[4-(3,4-Dichloro-phenoxy)-piperidin-1-yl]-2-oxo-ethylamino}-2-methyl-2H-pyridazin-3-one], in that order: 169 °C and 300 to 1000 nM.
For `Cn1nccc(NCC(=O)N2CCC(Oc3ccc(Cl)cc3Cl)CC2)c1=O` [Example 11, 4-{2-[4-(2,4-Dichloro-phenoxy)-piperidin-1-yl]-2-oxo-ethylamino}-2-methyl-2H-pyridazin-3-one], in that order: 152 °C and 100 to 300 nM.
With `Cn1nccc(NCC(=O)N2CCC(Oc3cc(Cl)ccc3Cl)CC2)c1=O` [Example 12, 4-{2-[4-(2,5-Dichloro-phenoxy)-piperidin-1-yl]-2-oxo-ethylamino}-2-methyl-2H-pyridazin-3-one], the melting point came out at 162 °C. Further, in data set [1], the half-inhibitory concentration (IC50) was in the range of 30 to 100 nM.
For `Cc1ccc(F)cc1OC1CCN(C(=O)CNc2ccnn(C)c2=O)CC1` [Example 14, 4-{2-[4-(5-Fluoro-2-methyl-phenoxy)-piperidin-1-yl]-2-oxo-ethylamino}-2-methyl-2H-pyridazin-3-one], in that order: 176 °C and 100 to 1000 nM.
In turn, `Cc1ccc(C(C)C)cc1OC1CCN(C(=O)CNc2ccnn(C)c2=O)CC1` [Example 16, 4-{2-[4-(5-Isopropyl-2-methyl-phenoxy)-piperidin-1-yl]-2-oxo-ethylamino}-2-methyl-2H-pyridazin-3-one] yielded a melting point of 159 °C. Also, the IC50 in data set [1] lay within 30 to 100 nM.
Consider `Cn1ncc(OCC(=O)N2CCC(Oc3cc(C(F)(F)F)ccc3Cl)CC2)cc1=O` [Example 24, 5-{2-[4-(2-Chloro-5-trifluoromethyl-phenoxy)-piperidin-1-yl]-2-oxo-ethoxy}-2-methyl-2H-pyridazin-3-one], for which the melting point is 176 °C. In addition, the IC50 in data set [1] is 1000 to 3000 nM.
The like results for `Cn1ncc(OCC(=O)N2CCC(Oc3cc(Cl)ccc3Cl)CC2)cc1=O` [Example 25, 5-{2-[4-(2,5-Dichloro-phenoxy)-piperidin-1-yl]-2-oxo-ethoxy}-2-methyl-2H-pyridazin-3-one] were, in that order, 163 °C and 1000 to 10000 nM.
The like results for `Cn1nccc(NCC(=O)N2CC(Oc3ccccc3C(F)(F)F)C2)c1=O` [Example 27, 2-Methyl-4-{2-oxo-2-[3-(2-trifluoromethyl-phenoxy)-azetidin-1-yl]-ethylamino}-2H-pyridazin-3-one] were, in that order, 122 °C and 3000 to 10000 nM.
`Cn1nccc(NCC(=O)N2CCC(CNc3ccccc3C(F)(F)F)CC2)c1=O` [Example 31, 2-Methyl-4-(2-oxo-2-{4-[(2-trifluoromethyl-phenylamino)-methyl]-piperidin-1-yl}-ethylamino)-2H-pyridazin-3-one] had a melting point of 182 °C. Besides, the IC50 in data set [1] was around 300 nM.
The like results for `Cn1nccc(NCC(=O)N2CCC(CNc3cc(C(F)(F)F)ccc3Cl)CC2)c1=O` [Example 32, 4-(2-{4-[(2-Chloro-5-trifluoromethyl-phenylamino)-methyl]-piperidin-1-yl}-2-oxo-ethylamino)-2-methyl-2H-pyridazin-3-one] were, in that order, 64 °C and 300 to 1000 nM.
The compound `Cn1nccc(NCC(=O)N2CCC(COc3cc(C(F)(F)F)ccc3Cl)C2)c1=O` (centres unmarked) [Example 34, 4-{2-[3-(2-Chloro-5-trifluoromethyl-phenoxymethyl)-pyrrolidin-1-yl]-2-oxo-ethylamino}-2-methyl-2H-pyridazin-3-one] yielded a melting point of 183 °C. Also, the IC50 in data set [1] is 30 to 100 nM.
Regarding `Cn1nccc(NC(=O)C(=O)N2CCC(Oc3cc(C(F)(F)F)ccc3Cl)CC2)c1=O` [Example 35, 2-[4-(2-Chloro-5-trifluoromethyl-phenoxy)-piperidin-1-yl]-N-(2-methyl-3-oxo-2,3-dihydro-pyridazin-4-yl)-2-oxo-acetamide], the melting point is 205 °C. Besides, the IC50 in data set [1] was 100 to 1000 nM.
As for `O=C(CNc1ccnn(Cc2ccccc2)c1=O)N1CCC(Oc2ccccc2C(F)(F)F)CC1` [Example 48, 2-Benzyl-4-{2-oxo-2-[4-(2-trifluoromethyl-phenoxy)-piperidin-1-yl]-ethylamino}-2H-pyridazin-3-one], the IC50 in data set [1] lay in the range of 1000 to 10000 nM.
On the same count and under the same terms, under `CCCCCCCCC1=C(CCCCCCCC(=O)O)C1` [Sterculic acid, reference compound] stands 300 nM.

For orientation: IC50 means the concentration needed to halve the response being measured. The term melting point denotes the temperature of the solid-liquid transition.
